US6361788B1, “Synergistic biocide composition” (Thor Chemie GmbH, priority 1997, dated 2002)
Several values for one entry are separate records, joined by “and”; a condition that tells them apart may be missing. Equal entries are not always repeated.

Legend:
Format in all cases: cell-based
[1] = system: Escherichia coli; assay: MIC and synergy of MIT and BIT in Müller-Hinton broth, 72 h; settings: for growth of the microorganism: BIT 0 ppm, MIT ppm = row head c0; as to growth of the microorganism: key: growth of the microorganism took place (symbol '+'); or not (symbol '−')
Method: For this purpose, aqueous mixtures were produced with various concentrations of 2-methylisothiazolin-3-one (MIT) and 1,2-benzisothiazolin-3-one (BIT) and the activity of these mixtures on Escherichia coli (International Mycological Institute, Strain No. IMI 362054) was tested.
In addition to the biocide component and water, the aqueous mixtures contained a nutrient medium, namely a Müller-Hinton broth (commercial product “Merck No. 10393”). The cell density of Escherichia coli was 10^6 cells/mL. The incubation time was 72 h at 25° C. Each sample was incubated on an incubation shaker at 120 rpm.
(§1) The synergy index is calculated according to the method of F. C. Kull et al., Applied Microbiology, Vol. 9 (1961), p. 538. Here the synergy index is calculated using the following formula:
(§2) Synergy index SI=Qa/QA+Qb/QB.
When the synergy index has the value 1, this means that there is an addition of the activity of the two biocides. When the synergy index has a value of less than 1, this means that a synergy of the two biocides exists.

[2] = system: Pseudomonas putida; assay: MIC and synergy of MIT and BIT in Müller-Hinton broth, 48 h; as to growth of the microorganism: key: growth of the microorganism took place (symbol '+'); or not (symbol '−')
Method: as §1, §2
The synergy of the two active substances MIT and BIT against the microorganism Pseudomonas putida is shown as in Example 1.
(§3) The test batches again contained a Müller-Hinton broth as a nutrient medium. The cell density was 10^6 cells/mL. The incubation time was 48 h at 25° C. Each sample was incubated on an incubation shaker at 120 rpm.

[3] = system: Pseudomonas stutzeri; assay: MIC and synergy of MIT and BIT in Müller-Hinton broth, 72 h; settings: for growth of the microorganism: BIT 0 ppm, MIT ppm = row head c0; as to growth of the microorganism: key: growth of the microorganism took place (symbol '+'); or not (symbol '−')
Method: as §1, §2
The synergy of MIT and BIT against the microorganism Pseudomonas stutzeri is shown as in Example 1.
(§4) The test batches again contained a Müller-Hinton broth as a nutrient medium. The cell density was 10^6 cells/mL. The incubation time was 72 h at 25° C. Each sample was incubated on an incubation shaker at 120 rpm.

[4] = system: Klebsiella pneumoniae; assay: as above; settings: for growth of the microorganism: BIT 0 ppm, MIT ppm = row head c0; as to growth of the microorganism: key: growth of the microorganism took place (symbol '+'); or not (symbol '−')
Method: as §1, §2
The synergy of the two active substances MIT and BIT against the microorganism Klebsiella pneumoniae is shown as in example 1.
as §4

[5] = system: Pseudomonas aeruginosa; assay: MIC and synergy of MIT and BIT in Müller-Hinton broth, 48 h
Method: as §1, §2
The synergy of the two active substances MIT and BIT against the microorganism Pseudomonas aeruginosa is shown as in Example 1.
as §3

[6] = system: standard bacterial inoculum; assay: Preservation of coating composition A, repeated bacterial inoculation, streak evaluation; set-up: key: 0: no growth; minimal growth up to 10 colonies; 2: slight growth up to 100 colonies; moderate growth up to 300 colonies; 4: uniform growth, single colonies still discernible; 5: strong growth, too many colonies to count, but not covering entire surface; 6: extensive growth, almost no individual colonies, total streak surface overgrown
Excerpt: Biocide compositions according to the invention were incorporated into a coating composition A that is used for coating building facades. This coating composition is a plaster based on an aqueous polymer dispersion commercially available under the designation “Granol KR 3.0” (company Steinwerke Kupferdreh GmbH). The addition of the biocide composition of the invention served to preserve the coating composition before its use, i.e., while it was stored in its packing drums.
(§5) The biocides shown in Table XI below were added respectively to 50 g of coating composition A. The stated amounts of biocide refer to the amount of coating composition A. In the MIT/BIT mixtures, the two biocides were present in a weight ratio of 1:1.
(§6) Apart from a blank test without addition of biocide, 1 mL of a standard bacterial inoculum that contained the following bacterial strains was added to each sample of coating composition A:
(§7) The cell density of the inoculum was 10^10 to 3·10^10 cells/mL, and the cell density of the samples was 2·10^8 to 6·10^8 cells/g. The samples were held at 30° C. for 7 days. Then a streak of each sample was produced on a nutrient agar plate, held at 30° C. for 48 h, and then evaluated for bacterial growth. The following evaluation scale was used:
(§8) When the bacterial growth was evaluated as below 6, a second bacterial inoculum of the above-mentioned type was added to the corresponding original 50 g sample and it was again held at 30° C. for 7 days. Then a streak was again produced on a nutrient agar plate, which was again evaluated for its bacterial growth after a holding time of 48 h at 30° C.
(§9) When the bacterial growth of the streak was evaluated as 6 for a sample, the testing of this sample was terminated. As long as a sample had not reached this number, a bacterial inoculum was again added in the above-mentioned manner and the sample was held and tested by means of a streak. This procedure was repeated as necessary, with a maximum of 4 bacterial inocula being added per sample.

[7] = system: standard bacterial inoculum; assay: Preservation of coating composition B, repeated bacterial inoculation, streak evaluation; set-up: key to Bacterial growth (7 days + 48 h after 4th inoculation): 0: no growth; minimal growth up to 10 colonies; 2: slight growth up to 100 colonies; moderate growth up to 300 colonies; 4: uniform growth, single colonies still discernible; 5: strong growth, too many colonies to count, but not covering entire surface; 6: extensive growth, almost no individual colonies, total streak surface overgrown
Method: as §5, §6, §7, §8, §9
Example 9 was repeated, but using coating composition B instead of coating composition A.
Coating composition B is a particularly low-emission plaster based on a polymer dispersion commercially available under the designation “Granol KR 3.0 LF” (company Steinwerke Kupferdreh GmbH).

[8] = system: Aspergillus niger; assay: MIC and synergy of MIT and BIT in Sabouraud maltose broth, 96 h
Method: as §1, §2
The synergy of the two active substances MIT and BIT against the microorganism Aspergillus niger is shown as in Example 1.
(§10) The test batches contained a Sabouraud maltose broth as a nutrient medium. The spore concentration was 10^6 per mL. The incubation time was 96 h at 25° C. Each sample was incubated on an incubation shaker at 120 rpm.

[9] = system: Penicillium funiculosum; assay: as above
Method: as §1, §2
The synergy of the two active substances MIT and BIT against the microorganism Penicillium funiculosum is shown as in Example 1.
as §10

[10] = system: Aspergillus niger; assay: MIC and synergy of MIT/BIT (1:1) and IPBC in Sabouraud maltose broth, 72 h
Method: (§11) In all the examples in which an active substance mixture of MIT and BIT as well as additionally a further active biocidal substance was used, the weight ratio of MIT to BIT was 1:1.
as §1, §2
The synergy of an active substance mixture that contains 3-iodo-2-propinyl-N-butyl carbamate (IPBC) in addition to MIT and BIT, against the microorganism Aspergillus niger is shown as in Example 1.
(§12) The test batches contained a Sabouraud maltose broth as a nutrient medium. The spore concentration was 10^6 per mL. The incubation time was 72 h at 25° C. Each sample was incubated on an incubation shaker at 120 rpm.

[11] = system: Penicillium funiculosum; assay: as above
Method: as §11, §1, §2
The synergy of an active substance mixture that contains IPBC in addition to MIT and BIT, against the microorganism Penicillium funiculosum is shown as in Example 1.
as §12

[12] = MIT share of the BIT/MIT mixture at MIC, 72 h
[13] = MIT share of the BIT/MIT mixture at MIC, 48 h
[14] = share of the BIT/MIT mixture at MIC, 96 h

`Cn1sccc1=O` [MIT, 2-methylisothiazolin-3-one] was tested, and the “MIC at Total concentration BIT + MIT Qa + Qb” value ([1]; 72 h) was 17.5 ppm, the Qb/QB ([1]; 72 h) was 1.00 and the “Synergy index Qa/QA + Qb/QB” value ([1]; 72 h, method of Kull) was 1.00. For the same compound, the “growth of the microorganism” value ([1]; 72 h, MIT 10 ppm) was “+”, the “growth of the microorganism” value ([1]; 72 h, MIT 25 ppm) was “−” and the “MIC at MIT concentration Qb” value [1, 12] was 17.5 ppm. For the same compound, the MIC value ([1]; used alone, 72 h at 25° C.) was 17.5 ppm, the “MIC at Total concentration BIT + MIT Qa + Qb” value ([2]; 48 h) was 12.5 ppm and the Qb/QB ([2]; 48 h) was 1.00. The “Synergy index Qa/QA + Qb/QB” value ([2]; 48 h) was 1.00, the “growth of the microorganism” value ([2]; BIT 0 ppm, MIT ppm = row head c0, 48 h) was “+ and −” and the “MIC at MIT concentration Qb” value [2, 13] was 12.5 ppm. For the same compound, the MIC value ([2]; used alone, 48 h at 25° C.) was 12.5 ppm, the “MIC at Total concentration BIT + MIT Qa + Qb” value ([3]; 72 h) was 12.5 ppm and the Qb/QB ([3]; 72 h) was 1.00. The “Synergy index Qa/QA + Qb/QB” value ([3]; 72 h) was 1.00, the “growth of the microorganism” value ([3]; 72 h, MIT 10 ppm) was “+” and the “growth of the microorganism” value ([3]; 72 h, MIT 15 ppm) was “−”. For the same compound, the “MIC at MIT concentration Qb” value [3, 12] was 12.5 ppm, the MIC value ([3]; used alone, 72 h at 25° C.) was 12.5 ppm and the “MIC at Total concentration BIT + MIT Qa + Qb” value ([4]; 72 h) was 20 ppm. The Qb/QB ([4]; 72 h) was 1.00, the “Synergy index Qa/QA + Qb/QB” value ([4]; 72 h) was 1.00 and the “growth of the microorganism” value ([4]; 72 h, MIT 12.5 ppm) was “+”. For the same compound, the “growth of the microorganism” value ([4]; 72 h, MIT 25 ppm) was “−”, the “MIC at MIT concentration Qb” value [4, 12] was 20 ppm and the MIC value ([4]; used alone, 72 h at 25° C.) was 20 ppm. The “MIC at Total concentration BIT + MIT Qa + Qb” value ([5]; 48 h) was 30 ppm, the Qb/QB ([5]; 48 h) was 1.00 and the “Synergy index Qa/QA + Qb/QB” value ([5]; 48 h) was 1.00. For the same compound, the “MIC at MIT concentration Qb” value [5, 13] was 30 ppm, the MIC value ([5]; used alone, 48 h at 25° C.) was 30 ppm and the “Bacterial growth (7 days + 48 h after 4th inoculation)” value (“Bacterial growth” for short) ([6]; biocide 0.005% by wt) was “full bacterial growth was reached only after four inoculations and 6”. For the same compound, the “Bacterial growth” value ([6]; biocide 0.01% by wt) was 5, the “Bacterial growth” value ([6]; biocide 0.015% by wt) was 5 and the “Bacterial growth” value ([6]; biocide 0.02% by wt) was 4. For the same compound, the “Bacterial growth” value ([6]; biocide 0.03% by wt) was “no bacterial growth found even after four inoculations and 0”, the “Bacterial growth” value ([7]; biocide 0.005% by wt) was 4 and the “Bacterial growth” value ([7]; biocide 0.01% by wt) was 1 (minimal growth up to 10 colonies). For the same compound, the “Bacterial growth” value ([7]; biocide 0.015% by wt) was 1 (minimal growth up to 10 colonies), the “Bacterial growth” value ([7]; biocide 0.02% by wt) was “prevented completely and 0” and the “Bacterial growth” value ([7]; biocide 0.03% by wt) was “prevented completely and 0”. The “MIC at Total concentration BIT + MIT Qa + Qb” value ([8]; 96 h) was 100 ppm, the Qb/QB ([8]; 96 h) was 1.00 and the “Synergy index Qa/QA + Qb/QB” value ([8]; 96 h) was 1.00. The “MIC at MIT concentration Qb” value [8, 14] was 100 ppm, the MIC value ([8]; used alone, 96 h at 25° C.) was 750 ppm and the “MIC at Total concentration BIT + MIT Qa + Qb” value ([9]; 96 h) was 40 ppm. For the same compound, the Qb/QB ([9]; 96 h) was 1.00, the “Synergy index Qa/QA + Qb/QB” value ([9]; 96 h) was 1.00 and the “MIC at MIT concentration Qb” value [9, 14] was 40 ppm. It also gave an MIC value ([9]; used alone, 96 h at 25° C.) of 200 ppm.

`CCCCNC(=O)OCC#CI` [IPBC, 3-iodo-2-propinyl-N-butyl carbamate] was tested, and the Qb/QB ([10]; Aspergillus niger, 72 h) was 1.00, the “Synergy index Qa/QA + Qb/QB” value ([10]; Aspergillus niger, 72 h) was 1.00 and the “MIC at IPBC concentration Qb” value ([10]; IPBC share at the MIC, Aspergillus niger, 72 h) was 2.5 ppm. The “Total concentration BIT/MIT + IPBC Qa + Qb” value ([10]; at the MIC, Aspergillus niger, 72 h) was 2.5 ppm, the MIC value ([10]; used alone, 72 h at 25° C.) was 2.5 ppm and the “MIC at IPBC concentration Qb” value ([11]; IPBC share at the MIC, Penicillium funiculosum, 72 h) was 0.75 ppm. The Qb/QB ([11]; Penicillium funiculosum, 72 h) was 1.00, the “Synergy index Qa/QA + Qb/QB” value ([11]; Penicillium funiculosum, 72 h) was 1.00 and the “Total concentration MIT/BIT + IPBC” value ([11]; at the MIC, Penicillium funiculosum, 72 h) was 0.75 ppm. The MIC value ([11]; used alone, 72 h at 25° C.) was 0.75 ppm.
